Patent publication US5332731A, “Cephalosporin derivatives” (Meiji Seika Kaisha, Ltd., priority 1989, dated 1994)
Values after ≈ are worked out from the molar mass of the structure shown.

Legend:
oral toxicity in mice = conditions: mouse, in vivo, oral administration, read-out: oral dosage tolerated without exhibiting toxic symptoms
Protocol: The new cephalosporin derivative of this invention may be administered orally at a unit dose of 100 mg to 250 mg to an adult human patient four times a day, for a guideline. However, precise dosage of the new cephalosporin is determinable through preliminary routine experiments, depending on the body weight, ages, sex and other various parameters of patients as well as the nature of the bacterial infections to be treated, and so on.

[1] = tested on: Enterobacter hirae ATCC8043; test: antibacterial activity, MIC by standard serial dilution method; assay type: cell-based
Text: (§1) Antibacterial activity of Compounds Nos. 1, 3, 5, 7, 9, 11, 13, 15, 17, 19, 21, 23, 25, 27, 29, 31, 33, 35 and 37 indentified hereinbefore which are the particular examples of the new cephalosporin derivative of general formula (I) according to this invention and which are in the form of the free carboxylic acid was estimated by determining the minimum inhibitory concentrations (MIC., μg/ml) of these compounds against a variety of bacteria according to a standard serial dilution method.

[2] = tested on: Klebsiella pneumoniae PCI602; test: as above; assay type: cell-based
Text: as §1

[3] = tested on: Enterobacter cloacae G-0008; test: as above; assay type: cell-based; conditions: G0008
Text: as §1

Escherichia coli 255 = test: as above; assay type: cell-based
Text: as §1

[4] = tested on: Marganella morganii 1510/S-1; test: as above; assay type: cell-based
Text: as §1

[5] = tested on: Escherichia coli NIHJ JC-2; test: as above; assay type: cell-based; conditions: NIHJJC2
Text: as §1

[6] = tested on: Escherichia coli W3630 RGN823; test: as above; assay type: cell-based; conditions: W3630RGN823
Text: as §1

[7] = tested on: Enterobacter cloacae GN7471; test: as above; assay type: cell-based
Text: as §1

[8] = tested on: Entrobacter faecalis W-73; test: as above; assay type: cell-based
Text: as §1

Proteus vulgaris GN76 = test: as above; assay type: cell-based
Text: as §1

[9] = tested on: Klebsiella pneumoniae GN69; test: as above; assay type: cell-based
Text: as §1

Escherichia coli 255/S-1 = test: as above; assay type: cell-based; conditions: 255/S1
Text: as §1

[10] = tested on: Serratia marcescens No. 1; test: as above; assay type: cell-based
Text: as §1

[11] = tested on: Staphylococcus epidermidis ATCC14990; test: as above; assay type: cell-based
Text: as §1

[12] = tested on: Proteus vulgaris GN76/C-1; test: as above; assay type: cell-based
Text: as §1

[13] = tested on: Staphylococcus aureus 209P JC-1; test: as above; assay type: cell-based
Text: as §1

[14] = tested on: Citrobacter freundii GN346; test: as above; assay type: cell-based
Text: as §1

Escherichia coli GN206 = test: as above; assay type: cell-based
Text: as §1

Marganella morganii 1510 = test: as above; assay type: cell-based
Text: as §1

[15] = tested on: Citrobacter freundii GN346/16; test: as above; assay type: cell-based
Text: as §1

[16] = tested on: Serratia marcescens GN10857; test: as above; assay type: cell-based
Text: as §1

[17] = tested on: Pseudomonas aeruginosa GN10362; test: as above; assay type: cell-based
Text: as §1

CO/N=C(\C(=O)NC1C(=O)N2C(C(=O)OCOC(=O)C(C)(C)C)=C(SC3CCOC3)CS[C@H]12)c1csc(N)n1 (stereo partly shown) [Compound No. 4, pivaloyloxymethyl 7-[(Z)-2-(2-aminothiazol-4-yl)-2-methoxyiminoacetamido]-3-(tetrahydrofuran-3-Yl) thio-3-cephem-4-carboxylate]
NOAEL (oral toxicity in mice): 3000 mg/kg

CO/N=C(\C(=O)NC1C(=O)N2C(C(=O)OCOC(=O)C(C)(C)C)=C(SCC3CCOC3)CS[C@H]12)c1csc(N)n1 (stereo partly shown) [Compound No. 28, pivaloyloxymethyl 7-[(Z)-2-(2-aminothiazol-4-yl)-2-methoxyiminoacetamido]-3-(tetrahydrofuran-3-yl) methylthio-3-cephem-4-carboxylate]
NOAEL (oral toxicity in mice): 3000 mg/kg

CO/N=C(\C(=O)NC1C(=O)N2C(C(=O)O)=C(SCC3COCO3)CS[C@H]12)c1csc(N)n1 (stereo partly shown) [Compound No. 29, 7 - [(Z)-2-(2-aminothiazol-4-yl)-2-methoxyiminoacetamido]-3-(1,3-dioxolan-4-yl)methylthio-3-cephem-4-carboxylic acid]
MIC [1]: > 100 µg/mL
MIC [2]: 0.2 µg/mL (≈ 0.399 µM)
MIC [3]: 0.39 µg/mL (≈ 0.778 µM)
MIC (Escherichia coli 255): 50 µg/mL (≈ 99.7 µM)
MIC [4]: 0.39 µg/mL (≈ 0.778 µM)
MIC [5]: 0.39 µg/mL (≈ 0.778 µM)
MIC [6]: 0.78 µg/mL (≈ 1.56 µM)
MIC [7]: 50 µg/mL (≈ 99.7 µM)
MIC [8]: > 100 µg/mL
MIC (Proteus vulgaris GN76): 0.1 µg/mL (≈ 0.199 µM)
MIC [9]: 0.2 µg/mL (≈ 0.399 µM)
MIC (Escherichia coli 255/S-1): 0.39 µg/mL (≈ 0.778 µM)
MIC [10]: 3.13 µg/mL (≈ 6.24 µM)
MIC [11]: 0.78 µg/mL (≈ 1.56 µM)
MIC [12]: 6.25 µg/mL (≈ 12.5 µM)
MIC [13]: 1.56 µg/mL (≈ 3.11 µM)
MIC [14]: > 100 µg/mL
MIC (Escherichia coli GN206): 6.25 µg/mL (≈ 12.5 µM)
MIC (Marganella morganii 1510): 50 µg/mL (≈ 99.7 µM)
MIC [15]: 3.13 µg/mL (≈ 6.24 µM)
MIC [16]: 50 µg/mL (≈ 99.7 µM)
MIC [17]: > 100 µg/mL

CO/N=C(\C(=O)NC1C(=O)N2C(C(=O)OCOC(=O)C(C)(C)C)=C(SCC3COCO3)CS[C@H]12)c1csc(N)n1 (stereo partly shown) [Compound No. 30, pivaloyloxymethyl 7-[(Z)-2-(2-aminothiazol-4-yl)-2-methoxyiminoacetamido]-3-(1,3-dioxolan-4-yl) methylthio-3-cephem-4-carboxylate]
NOAEL (oral toxicity in mice): 3000 mg/kg
